From PubChem BioAssay AID1259407 (Chemical Carcinogenesis Research Information System (CCRIS), 2018)
Activity calls are given as the source filed them. How the calls were made is not given here.

Test system: CCRIS mutagenicity, Ames/micronucleus/aberration tests
Assay: CCRIS mutagenicity studies
[1] = Test System: AMES SALMONELLA TYPHIMURIUM, Strain/Indicator: TA98, Metabolic Activation: NONE, Method: STANDARD PLATE
[2] = Test System: AMES SALMONELLA TYPHIMURIUM, Strain/Indicator: TA98, Metabolic Activation: RAT, LIVER, S-9, AROCLOR 1254, Method: STANDARD PLATE
[3] = Test System: AMES SALMONELLA TYPHIMURIUM, Strain/Indicator: TA100, Metabolic Activation: NONE, Method: STANDARD PLATE
[4] = Test System: AMES SALMONELLA TYPHIMURIUM, Strain/Indicator: TA100, Metabolic Activation: RAT, LIVER, S-9, AROCLOR 1254, Method: STANDARD PLATE
[5] = Test System: AMES SALMONELLA TYPHIMURIUM, Strain/Indicator: TA102, Metabolic Activation: NONE, Method: STANDARD PLATE
[6] = Test System: MOUSE LYMPHOMA, Strain/Indicator: L5178Y (TK+/TK-), Metabolic Activation: NONE, Method: SUSPENSION/PLATE

COCC(O)Cn1cc([N+](=O)[O-])nc1C (stereo not given)
mutagenic call (Test System: E. COLI, Strain/Indicator: CM561 EXRA, Metabolic Activation: NONE, Method: SUSPENSION/PLATE): active; positive | mutagenic call (Test System: E. COLI, Strain/Indicator: CM561 EXRA, Metabolic Activation: RAT, LIVER, S-9, AROCLOR 1254, Method: SUSPENSION/PLATE): inactive; negative | mutagenic call (Test System: E. COLI, Strain/Indicator: CM611 UVRA EXRA, Metabolic Activation: NONE, Method: SUSPENSION/PLATE): active; positive | mutagenic call (Test System: E. COLI, Strain/Indicator: CM611 UVRA EXRA, Metabolic Activation: RAT, LIVER, S-9, AROCLOR 1254, Method: SUSPENSION/PLATE): active; positive

O=NN1CCSC1
mutagenic call (Test System: AMES SALMONELLA TYPHIMURIUM, Strain/Indicator: TA98, Metabolic Activation: NONE, Method: PREINCUBATION): inactive; negative | mutagenic call [1]: inactive; negative | mutagenic call (Test System: AMES SALMONELLA TYPHIMURIUM, Strain/Indicator: TA98, Metabolic Activation: RAT, LIVER, S-9, AROCLOR 1254, Method: PREINCUBATION): inactive; negative | mutagenic call [2]: active; positive | mutagenic call [3]: active; positive | mutagenic call (Test System: AMES SALMONELLA TYPHIMURIUM, Strain/Indicator: TA100, Metabolic Activation: RAT, LIVER, S-9, AROCLOR 1254, Method: PREINCUBATION): active; positive | mutagenic call [4]: active; positive | mutagenic call (Test System: UDS RAT PRIMARY HEPATOCYTES, Strain/Indicator: THY INCORP, Metabolic Activation: NONE): active; positive

O=[As]O
mutagenic call (End Point: IN VITRO CHROMOSOMAL ABERRATIONS, Test System: CHINESE HAMSTER OVARY (CHO), Metabolic Activation: NONE): active; positive (structural changes: breaks, exchanges, endoreduplication) | mutagenic call (End Point: IN VITRO CHROMOSOMAL ABERRATIONS, Test System: HUMAN FIBROBLAST (HFW), Metabolic Activation: NONE): active; positive (structural changes: breaks, fusion) | mutagenic call (End Point: IN VITRO CHROMOSOMAL ABERRATIONS, Test System: HUMAN LYMPHOCYTES, Metabolic Activation: NONE, Method: FISH): active; positive (hyperdiploidy) | mutagenic call (End Point: IN VITRO CHROMOSOMAL ABERRATIONS, Test System: V79-C13 CHINESE HAMSTER CELLS, Metabolic Activation: NONE): inactive; negative | mutagenic call (End Point: IN VITRO MICRONUCLEUS, Test System: CHINESE HAMSTER OVARY CELLS, Metabolic Activation: NONE): active; positive | mutagenic call (End Point: IN VITRO MICRONUCLEUS, Test System: CHINESE HAMSTER V-79, Metabolic Activation: NONE): active; positive | mutagenic call (End Point: IN VITRO MICRONUCLEUS, Test System: HUMAN FIBROBLASTS VH25 CELLS, Metabolic Activation: NONE): active; positive | mutagenic call (End Point: IN VITRO MICRONUCLEUS, Test System: V79-C13 CHINESE HAMSTER CELLS, Metabolic Activation: NONE): active; positive | mutagenic call (End Point: In vitro chromosomal aberrations, Test System: Human peripheral lymphocytes, Metabolic Activation: None): active; positive | mutagenic call (End Point: In vitro micronucleus, Test System: Human peripheral lymphocytes, Metabolic Activation: None): active; positive | mutagenic call (End Point: In vivo micronucleus, Test System: Bone marrow polychromatic erythrocytes, Species: Mouse, Strain/Sex: C57BL/6J/Han/Male, Route: Oral): active; positive | mutagenic call [5]: inactive; negative | mutagenic call [6]: active; positive | mutagenic call (Test System: Mouse lymphoma, Strain/Indicator: L5178Y (TK+/TK-), Metabolic Activation: None, Method: Microwell): active; positive (statistically significant at 2 highest doses)

CC(C)(S)[C@@H](N)C(=O)O
mutagenic call (Test System: AMES SALMONELLA TYPHIMURIUM, Strain/Indicator: TA92, Metabolic Activation: HOMOGENIZED V-79, Method: STANDARD PLATE): active; positive | mutagenic call (Test System: AMES SALMONELLA TYPHIMURIUM, Strain/Indicator: TA92, Metabolic Activation: NONE, Method: STANDARD PLATE): active; positive | mutagenic call (Test System: AMES SALMONELLA TYPHIMURIUM, Strain/Indicator: TA92, Metabolic Activation: RAT, KIDNEY, S-9, Method: STANDARD PLATE): active; positive | mutagenic call (Test System: AMES SALMONELLA TYPHIMURIUM, Strain/Indicator: TA92, Metabolic Activation: RAT, LIVER, S-9, Method: STANDARD PLATE): active; positive | mutagenic call [3]: active; positive | mutagenic call (Test System: AMES SALMONELLA TYPHIMURIUM, Strain/Indicator: TA100, Metabolic Activation: RAT, KIDNEY, S-9, Method: STANDARD PLATE): active; positive | mutagenic call (Test System: AMES SALMONELLA TYPHIMURIUM, Strain/Indicator: TA100, Metabolic Activation: RAT, LIVER, S-9, Method: STANDARD PLATE): active; positive | mutagenic call [5]: active; positive | mutagenic call (Test System: CHINESE HAMSTER V-79, Strain/Indicator: V-79/6-THIOGUANINE, Metabolic Activation: NONE, Method: STANDARD PLATE): inactive; negative

Cc1c2c(c(C)c3ccccc13)-c1cccc3cccc-2c13
mutagenic call (Test System: AMES SALMONELLA TYPHIMURIUM, Strain/Indicator: TA100, Metabolic Activation: RAT, LIVER, S-9, AROCLOR 1254): active; positive

CC/C=C\CC/C=C/C=O
mutagenic call (Test System: AMES SALMONELLA TYPHIMURIUM, Strain/Indicator: TA100, Metabolic Activation: NONE, Method: PREINCUBATION): inactive; negative | mutagenic call (Test System: AMES SALMONELLA TYPHIMURIUM, Strain/Indicator: TA100, Metabolic Activation: NONE, Method: PREINCUBATION (THREEFOLD CELL DENSITY)): inactive; negative | mutagenic call (Test System: AMES SALMONELLA TYPHIMURIUM, Strain/Indicator: TA100, Metabolic Activation: RAT, LIVER, S-9, AROCLOR 1254, Method: PREINCUBATION (THREEFOLD CELL DENSITY)): inactive; negative

CC1=Nc2ccccc2C1(C)C
mutagenic call (Test System: AMES SALMONELLA TYPHIMURIUM, Strain/Indicator: TA98, Metabolic Activation: HAMSTER, LIVER, S-9, AROCLOR 1254, Method: STANDARD PLATE): inactive; negative | mutagenic call [1]: inactive; negative | mutagenic call [2]: inactive; negative | mutagenic call (Test System: AMES SALMONELLA TYPHIMURIUM, Strain/Indicator: TA100, Metabolic Activation: HAMSTER, LIVER, S-9, AROCLOR 1254, Method: STANDARD PLATE): inactive; negative | mutagenic call [3]: inactive; negative | mutagenic call [4]: inactive; negative | mutagenic call (Test System: AMES SALMONELLA TYPHIMURIUM, Strain/Indicator: TA1535, Metabolic Activation: HAMSTER, LIVER, S-9, AROCLOR 1254, Method: STANDARD PLATE): inactive; negative | mutagenic call (Test System: AMES SALMONELLA TYPHIMURIUM, Strain/Indicator: TA1535, Metabolic Activation: NONE, Method: STANDARD PLATE): inactive; negative | mutagenic call (Test System: AMES SALMONELLA TYPHIMURIUM, Strain/Indicator: TA1535, Metabolic Activation: RAT, LIVER, S-9, AROCLOR 1254, Method: STANDARD PLATE): inactive; negative | mutagenic call (Test System: AMES SALMONELLA TYPHIMURIUM, Strain/Indicator: TA1537, Metabolic Activation: HAMSTER, LIVER, S-9, AROCLOR 1254, Method: STANDARD PLATE): inactive; negative | mutagenic call (Test System: AMES SALMONELLA TYPHIMURIUM, Strain/Indicator: TA1537, Metabolic Activation: NONE, Method: STANDARD PLATE): inactive; negative | mutagenic call (Test System: AMES SALMONELLA TYPHIMURIUM, Strain/Indicator: TA1537, Metabolic Activation: RAT, LIVER, S-9, AROCLOR 1254, Method: STANDARD PLATE): inactive; negative | mutagenic call (Test System: AMES SALMONELLA TYPHIMURIUM, Strain/Indicator: TA1538, Metabolic Activation: HAMSTER, LIVER, S-9, AROCLOR 1254, Method: STANDARD PLATE): inactive; negative | mutagenic call (Test System: AMES SALMONELLA TYPHIMURIUM, Strain/Indicator: TA1538, Metabolic Activation: NONE, Method: STANDARD PLATE): inactive; negative | mutagenic call (Test System: AMES SALMONELLA TYPHIMURIUM, Strain/Indicator: TA1538, Metabolic Activation: RAT, LIVER, S-9, AROCLOR 1254, Method: STANDARD PLATE): inactive; negative | mutagenic call [6]: inactive; positive. reevaluation of results: negative | mutagenic call (Test System: MOUSE LYMPHOMA, Strain/Indicator: L5178Y (TK+/TK-), Metabolic Activation: RAT, LIVER, S-9, AROCLOR 1254, Method: SUSPENSION/PLATE): active; positive. reevaluation of results: inconclusive

CC(C)c1cc(-c2ccccc2)ccc1N
mutagenic call [1]: inactive; negative | mutagenic call (Test System: AMES SALMONELLA TYPHIMURIUM, Strain/Indicator: TA98, Metabolic Activation: RAT LIVER S-9, AROCLOR, Method: STANDARD PLATE): active; positive | mutagenic call [3]: inactive; negative | mutagenic call (Test System: AMES SALMONELLA TYPHIMURIUM, Strain/Indicator: TA100, Metabolic Activation: RAT LIVER S-9, AROCLOR, Method: STANDARD PLATE): active; positive
